Test results taken from patent EP2042188A1, “PHARMACEUTICAL COMPOSITION FOR TREATING OR PREVENTING HCV INFECTION” (priority 2006, dated 2007).
pIC50: −log10 of the molar value. Read-outs that look alike come from different tables or passages of the source.

How the values were obtained:
[1] = tested on: FLR3-1 HCV subgenomic replicon cells (genotype 1b; Con-1); assay: Luciferase assay of HCV replication in HCV subgenomic replicon cells; type: cell-based; details: Hepatitis C virus; for pIC50: 72 h, FLR3-1 cells, read-out: IC50 of myriocin
Procedure: First, myriocin (Sigma, St. Louis, MO, USA) was added at a final concentration of 0.2, 1.0, 3.9, 15.6, or 62.5 nM to a growth medium for FLR3-1 HCV subgenomic replicon cells (genotype 1b; Con-1; Sakamoto, H. et al., Nat Chem Biol, 1, 333-337 (2005)). After 72 hours of incubation, the present inventors carried out luciferase assay using the Bright-Glo luciferase assay kit (Promega, Madison, WI, USA).
FLR3-1 cells were incubated with 1 or 2.5 µM of a sphingolipid intermediate (dihydrosphingosine, sphingosine, or sphingosine-1-phosphate), and then serial dilutions of myriocin were added thereto. After 72 hours, IC50 in each combination was determined by luciferase assay.

FLR3-1 cells = assay: Cell viability (Tetra Color One kit); type: cell-based; details: 72 hours of incubation, 0.2 to 62.5 nM
Procedure: Furthermore, myriocin was added to FLR3-1 cells, and after 72 hours of incubation, the cell viability was determined using Tetra Color One kit (Seikagakukogyo, Tokyo, Japan) according to the manufacturer's instructions.

[2] = tested on: de novo sphingolipid biosynthesis in FLR3-1 cells; assay: De novo sphingolipid biosynthesis monitored by [14C]-serine incorporation and TLC; type: cell-based; details: TLC
Procedure: To investigate the correlation between sphingolipid metabolites and HCV replication, the present inventors monitored the de novo sphingolipid biosynthesis in FLR3-1 cells in the presence of myriocin.
First, FLR3-1 cells were incubated with [^14C]-serine (0.5 µCi/ml) in Opti-MEM (Invitrogen) for two hours. After the cells were lysed in 0.1% SDS, total lipid was extracted using chloroform/methanol (1:2 (v/v)). The extract was spotted onto a Silica gel 60 thin layer chromatography (TLC) plate (Merck, Darmstadt, Germany), and chromatographed using methyl acetate/ 1-propanol/ chloroform/methanol/ 0.25% KCl (25:25:25:10:9 (v/v)). Radioactive spots were detected using BAS 2000 (Fujifilm, Kanagawa, Japan).

NS3 protein = assay: Immunoblotting and immunofluorescent staining of NS3 protein in HCV replicon cells; type: cell-based
HCV genotype 1b (HCR6) = assay: Serum HCV RNA (real-time PCR) in chimeric mice with humanized liver infected with HCV genotype 1b, myriocin and/or PEG-IFN; type: in vivo, chimeric mice having humanized liver; details: after eight days, myriocin 1 mg/kg (reduced to 0.5 mg/kg on weight loss)
Procedure: The inhibitory activity of myriocin was examined using chimeric mice having humanized liver infected with HCR6 (genotype 1b). The chimeric mice used were purchased from PhoenixBio Co. (Hiroshima, Japan).
Specifically, according to Table 2, myriocin and/or PEG-IFN (Chugai, Tokyo, Japan) were administered intraperitoneally or subcutaneously into mice infected with HCV genotype 1b (HCR6; accession number AY045702) and blood was collected. Table 2: Administration schedule for chimeric mice infected with HCV genotype 1b
In Table 2, the symbols B, I, and M indicate that each step was conducted as needed and the administration of agents was started on day 0. PEG-IFN was injected at a dose of 30 µg/kg. The dose of myriocin injection was varied depending on the mouse weight. The administration was started at 1 mg/kg (M). When the weight was reduced by 10%, the dose was reduced to 0.5 mg/kg (M1/2). The administration was discontinued when the weight was reduced by 20%.
Next, total RNAs were purified using AGPC method from 1 µl of sera or hepatic tissues collected from the chimeric mice. HCV RNA was quantified by real-time PCR using a method known to those skilled in the art (Takeuchi, T. et al., Gastroenterology, 116, 636-642 (1999)).

[3] = Serum human albumin level (Alb-II kit) in HCV 1b infected chimeric mice; type: in vivo, chimeric mice having humanized liver; details: serum of HCV 1b infected chimeric mice
Procedure: The present inventors monitored the human albumin (h-Alb) level at the same time. The human albumin level was determined using 2 µl of serum and the Alb-II kit (Eiken Chemical, Tokyo, Japan) according to the manufacturer's instructions.

HCV genotype, 1a (HCG9) = assay: HCV RNA and core protein in serum and liver of chimeric mice infected with HCV genotype 1a; type: in vivo; details: 2 mg/kg of myriocin every day for six days
Procedure: The serum RNA level in these mice reached about 1x10^8 copies/ml, 10 times higher than that of HCV 1b (HCR6) (Fig. 5A). Therefore, it was assumed that the HCV core protein in the hepatocytes could be readily detected by immunofluorescent staining. The present inventors administered 2 mg/kg of myriocin to 1a-4 chimeric mice every day for six days and then excised the livers. For comparison, livers were also excised from non-treated mice (1a-1), non-infected mice (1a-2), and PEG-IFN-treated mice (1a-3) in the same way. The livers were homogenized in RIPA, and 100 µg of the total protein was used for detection of the core protein using the Ortho HCV core protein ELISA kit (Eiken Chemical).
Next, the liver tissues of the chimeric mice were examined by immunofluorescent staining. Liver sections from the 1a-1 and 1a-4 mice were probed using a biotinylated anti-HCV core protein monoclonal antibody and anti-human hepatocyte monoclonal antibody (Dako, Glostrup, Denmark) as primary antibodies. Then, the sections were probed with streptavidin-Alexa 488 (Invitrogen) and anti-mouse IgG-Alexa-546 (Invitrogen). Furthermore, nuclei were stained with DAPI.
The effect of myriocin treatment on the expression of HCV RNA and core protein in the livers of the chimeric mice was confirmed by the method described above.

Q: With `CCCCCCC(=O)CCCCCC/C=C/C[C@@H](O)[C@H](O)[C@@](N)(CO)C(=O)O` [myriocin, Myriocin] as the molecule, how does the pIC50 ([1]; Agent added: Dihydrosphingosine 1.0 µM) read?
A: Its pIC50 is 7.11.

Q: And the pIC50 ([1]; Agent added: Dihydrosphingosine 2.5 µM)?
A: Its pIC50 is less than 6.00.

Q: And the pIC50 ([1]; Agent added: Sphingosine 1.0 µM)?
A: The pIC50 was 7.65.

Q: And the pIC50 ([1]; Agent added: Sphingosine 2.5 µM)?
A: Its pIC50 is less than 6.00.

Q: What about the pIC50 ([1]; Agent added: Sphingosine-1-phosphate 1.0 µM) of the same molecule?
A: Its pIC50 is 7.83.

Q: What about the pIC50 ([1]; Agent added: Sphingosine-1-phosphate 2.5 µM) of the same molecule?
A: Its pIC50 is less than 6.00.

Q: And the pIC50 ([1]; No agent added, luciferase assay)?
A: The pIC50 was roughly 8.24.

Q: What about the inhibition at 0.0625 µM ([1]; in the presence of 62.5 nM myriocin, 72 hours, read-out: maximum inhibitory rate (luciferase activity)) of the same molecule?
A: The inhibition at 0.0625 µM was roughly 80%.

Q: What about the cell viability (FLR3-1 cells) of the same molecule?
A: The cell viability was “without affecting the cell viability”.

Q: And the “production of both ceramide and sphingomyelin” value [2]?
A: The value was “inhibited in a dose dependent manner”.

Q: What about the “production of phosphatidylethanolamine and phosphatidylserine” value [2] of the same molecule?
A: Its value is “not affected”.

Q: What about the NS3 protein (NS3 protein) of the same molecule?
A: Its NS3 protein is “reduced”.

Q: And the “reduction of serum level of HCV RNA” value (HCV genotype 1b (HCR6))?
A: Its value is 10 to 100 times.

Q: What about the “serum level of HCV RNA” value (HCV genotype 1b (HCR6); before treatment 3 x 10^6 to 1 x 10^7 copies/ml) of the same molecule?
A: The value was 6 x 10^5 to 1 x 10^4 copies/ml.

Q: What about the human albumin level [3] of the same molecule?
A: Its human albumin level is “without affecting h-Alb”.

Q: And the “HCV 1a RNA and core protein in the liver” value (HCV genotype, 1a (HCG9); 1a-4 mice)?
A: The value was “also reduced”.

Q: And the “serum level of HCV RNA” value (HCV genotype, 1a (HCG9); 1a-4 mice, non-treated about 1x10^8 copies/ml)?
A: The value was 1 x 10^5 copies/ml.

Q: And the “core protein in human hepatocytes (immunofluorescent staining)” value (HCV genotype, 1a (HCG9); liver sections of 1a-4 mice)?
A: The value was “disappeared”.
